This is an account of results in ChEMBL document CHEMBL4616701, “Design, Synthesis, and Pharmacological Evaluation of Second Generation EZH2 Inhibitors with Long Residence Time” (ACS Med Chem Lett, 2020).

Active and inactive are the calls of the source. No cut-off for these calls is given here.

A word on the GI50: it is the concentration giving 50% growth inhibition. What is called EC50 is the concentration at which the effect is half-maximal. As usually defined, the IC50 is the point on the concentration scale where inhibition reaches its midpoint. A lower IC50 goes with inhibition by little substance. What is called bioavailability is dose-corrected exposure relative to a reference, in per cent. A high value points to good availability. What is called clearance is a measure of how efficiently the substance is removed, as volume per time. Lower therefore signals a low capacity for elimination.

Data set [1] has as its system KARPAS-422. Put plainly: Antitumor activity against human KARPAS422 cells xenografted in CB-17 SCID mouse assessed as tumor regression at 160 mg/kg, po bid for 23 days and measured three times per week by caliper method. It counts as functional, organism-based. For orientation: A xenograft is tissue or cells of one species grown in another, often human tumour cells in immunodeficient mice.

Data set [2] deals with KARPAS-422. Briefly: Antiproliferative activity against human KARPAS422 cells assessed as growth inhibition after 8 days by Cell Titer-Glo luminescent assay. The format is functional. The conditions noted are these: KARPAS-422, 192 h. Background: ATP-based viability assays read luminescence as a measure of living cells.
The subject of the next data set is CYP3A4. Put plainly: Upregulation of CYP3A4 mRNA expression in human Fa2N-4 cells at 10 uM after 3 days relative to control. It counts as ADME, cell-based. To be noted: read-out: FC.
For data set [3], the target named is T1, Histone-lysine N-methyltransferase EZH2 (Homo sapiens, UniProt Q15910). Briefly: Binding affinity to N-terminal FLAG-tagged EZH2 in PRC2 complex (unknown origin) expressed in baculovirus infected Sf9 cells assessed as residence time at 21 nM pre-equilibrated with enzyme followed by incubation with bio-EZH2i and measured after 3 to 6 mins by TR-FRET assay.
Target sequence in this assay (Q15910 whole entry, looked up): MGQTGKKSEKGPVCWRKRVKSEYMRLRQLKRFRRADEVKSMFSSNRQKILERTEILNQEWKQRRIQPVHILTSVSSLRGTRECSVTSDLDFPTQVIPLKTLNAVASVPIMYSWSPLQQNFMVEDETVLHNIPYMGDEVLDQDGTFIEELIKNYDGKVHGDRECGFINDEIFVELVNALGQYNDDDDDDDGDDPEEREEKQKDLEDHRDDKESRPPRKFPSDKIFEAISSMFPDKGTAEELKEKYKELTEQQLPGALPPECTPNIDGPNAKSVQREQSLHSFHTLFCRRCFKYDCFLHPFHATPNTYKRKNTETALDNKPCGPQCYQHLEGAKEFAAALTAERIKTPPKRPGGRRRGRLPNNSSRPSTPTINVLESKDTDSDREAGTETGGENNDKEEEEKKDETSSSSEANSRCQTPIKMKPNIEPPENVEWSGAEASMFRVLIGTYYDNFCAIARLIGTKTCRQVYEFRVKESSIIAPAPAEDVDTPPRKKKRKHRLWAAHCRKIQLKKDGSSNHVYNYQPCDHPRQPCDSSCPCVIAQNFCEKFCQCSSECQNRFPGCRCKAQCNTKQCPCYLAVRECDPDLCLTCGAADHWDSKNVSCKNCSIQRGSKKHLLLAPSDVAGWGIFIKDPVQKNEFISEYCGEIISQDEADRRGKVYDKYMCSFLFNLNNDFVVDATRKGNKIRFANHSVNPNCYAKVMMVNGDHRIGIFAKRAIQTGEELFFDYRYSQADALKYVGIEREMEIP

Data set [4] addresses T1, Histone-lysine N-methyltransferase EZH2. Put plainly: Inhibition of EZH2 in human HeLa cells assessed as inhibition of trimethylation of H3K27 after 72 hrs by AlphaLISA assay. It counts as cell-based. A general note: In Alpha technology, singlet oxygen from a donor bead excites a nearby acceptor bead.
Target sequence in this assay (Q15910 whole entry): as the sequence (Q15910 whole entry, looked up) above
Data set [5] has the same target. Briefly: Inhibition of N-terminal FLAG-tagged EZH2 in PRC2 complex (unknown origin) expressed in baculovirus infected Sf9 cells using H2N-RKQLATKAAR(Kme0)SAPATGGVKKP-NTPEGBiot peptide as substrate preincubated with [3H]SAM for 4 to 5 hrs followed by substrate addition and measured after 20 hrs by Topcount reader analysis.
Target sequence in this assay (Q15910 whole entry): as the sequence (Q15910 whole entry, looked up) above
A short description of data set [6]: Toxicity in CB-17 SCID mouse xenografted with human KARPAS422 cells assessed as effect on body weight at 25 mg/kg, po bid and measured on day 21. The conditions noted are these: in vivo. The format is organism-based, KARPAS-422.
Data set [7] has as its target T1, Histone-lysine N-methyltransferase EZH2. Put plainly: In vivo inhibition of EZH2 in CB-17 SCID mouse xenografted with human KARPAS422 cells assessed as reduction in trimethylation of H3K27 in tumor at 25 mg/kg, po bid for 21 days measured after 14 days by MSD-ELISA. The conditions noted are these: KARPAS-422. The format is functional, organism-based.
Target sequence in this assay (Q15910 whole entry, looked up): as above
Data set [8] is described as follows: Dose normalized AUClast in CB-17 SCID mouse xenografted with human KARPAS422 cells at 25 mg/kg, po bid for 21 days and measured after 10 hrs post first dose at day 1 by LC-MS analysis. It counts as ADME, organism-based, KARPAS-422. To be noted: in vivo.
Data set [9] in a line: Oral bioavailability in CB-17 SCID mouse xenografted with human KARPAS422 cells at 25 mg/kg, bid for 21 days measured up to 10 hrs post first dose at day 1 by LC-MS analysis. It counts as ADME, organism-based, KARPAS-422. The conditions noted are these: in vivo.
For data set [10], the system named is KARPAS-422. Put plainly: Antitumor activity against human KARPAS422 cells xenografted in CB-17 SCID mouse assessed as tumor growth inhibition at 25 mg/kg, po bid and measured on day 25 by caliper method relative to control. It counts as functional. The conditions noted are these: KARPAS-422, po, 600 h, read-out: TGI.
The nature of data set [11]: Protein binding in mouse plasma. The conditions noted are these: read-out: PPB (converted). The format is ADME, cell-free.
In data set [12] the test system is KARPAS-422. Briefly: Antitumor activity against human KARPAS422 cells xenografted in CB-17 SCID mouse assessed as tumor growth inhibition at 25 mg/kg, po bid and measured on day 21 by caliper method relative to control. To be noted: KARPAS-422, po, 504 h, read-out: TGI. It counts as functional.
A short description of data set [13]: Time during which free drug concentration exceeds EC50 for inhibition of EZH2 in human HeLa cells in CB-17 SCID mouse xenografted with human KARPAS422 cells at 25 mg/kg, po bid for 21 days and measured up to 10 hrs post first dose at day 1 by LC-MS analysis. The format is organism-based. The conditions noted are these: in vivo.
For data set [14], the system named is KARPAS-422. Put plainly: Antitumor activity against human KARPAS422 cells xenografted in CB-17 SCID mouse assessed as tumor regression at 25 mg/kg, po bid and measured on day 14 by caliper method. It counts as functional, organism-based.
Data set [15] is described as follows: Clearance in iv dosed mouse. It counts as ADME, organism-based. To be noted: in vivo.
Data set [16] is described as follows: Protein binding in human plasma. The conditions noted are these: read-out: PPB (converted). The format is ADME, cell-free.
The nature of data set [17]: Toxicity in CB-17 SCID mouse xenografted with human KARPAS422 cells assessed as body weight loss at 50 mg/kg, sc bid for 16 days. It counts as organism-based, KARPAS-422. To be noted: in vivo, 384 h.
The subject of data set [18] is KARPAS-422. Put plainly: Antitumor activity against human KARPAS422 cells xenografted in CB-17 SCID mouse assessed as tumor regression at 50 mg/kg, sc bid for 16 days and measured at day 9 by caliper method. It counts as functional, organism-based.
A further data set has as its system CWR22R. Briefly: Antitumor activity against human 22Rv1 cells xenografted in CB-17 SCID mouse assessed as tumor growth inhibition at 50 mg/kg, sc bid and measured three times per week by caliper method relative to control. The conditions noted are these: 22Rv1, sc, read-out: TGI. The format is functional.
Data set [19] relates to KARPAS-422. Briefly: Antitumor activity against human KARPAS422 cells xenografted in CB-17 SCID mouse assessed as tumor growth inhibition at 50 mg/kg, sc bid for 16 days and measured three times per week by caliper method relative to control. It counts as functional. The conditions noted are these: KARPAS-422, sc, 384 h, read-out: TGI.
For data set [20], the system named is KARPAS-422. Put plainly: Antitumor activity against human KARPAS422 cells xenografted in CB-17 SCID mouse assessed as tumor regression at 50 mg/kg, sc bid for 16 days and measured at day 7 by caliper method. It counts as functional, organism-based.
Data set [21] can be described thus: Oral bioavailability in mouse. It counts as ADME, organism-based. To be noted: in vivo.

In the case of `CCN(c1cc(-c2ccc(CN3CCOCC3)cc2)cc(C(=O)NCc2c(C)cc(C)[nH]c2=O)c1C)C1CCOCC1`, the result in the data set on KARPAS-422 [1] was Active.

Turning to `CSc1cc(C)[nH]c(=O)c1CNC(=O)c1c(C)n([C@H](C)[C@H]2CC[C@H](N3CC(OC4CC4)C3)CC2)c2ncc(F)cc12`, the GI50 with KARPAS-422 [2] was 24 nM. Also, the fold induction at 72 h, 10 µM with CYP3A4 stood at 12. For the same compound, the TIME in data set [3] came out at 65.8 h. Besides, the EC50 in data set [4] stood at 1.8 nM. Inhibition in data set [5] was half-maximal at 0.06 nM (IC50).

Take `CSc1cc(C)[nH]c(=O)c1CNC(=O)c1c(C)n([C@H](C)[C@H]2CC[C@H](N3CC(OC4CC4)C3)CC2)c2ccccc12`: the concentration for 50% growth inhibition (GI50) in the data set on KARPAS-422 [2] amounted to 13 nM. Also, in the data set on CYP3A4, the fold induction at 72 h, 10 µM came to 17. In addition, in data set [3], the TIME worked out at 289 h. Also, in data set [4], the EC50 was determined as 3.5 nM. In data set [5], this compound came in with an IC50 of 0.072 nM.

Consider `CSc1cc(C)[nH]c(=O)c1CNC(=O)c1c(C)n([C@H](C)[C@H]2CC[C@H](N3CC(OC4CC4)C3)CC2)c2ncccc12`, for which the Activity result in [6] is on record as “Non-Toxic”. Besides, in the data set on KARPAS-422 [2], the GI50 was in the range of 12 to 12.2 nM. Moreover, the inhibition entry in data set [7] was “Active”. The AUClast/dose in data set [8] was 46.5 ng·h/mL/(mg/kg). The compound also gave a bioavailability in data set [9] of 15%. Also, the inhibition in vivo at 25 mg/kg is ≥ 91% in the data set with KARPAS-422 [10] and 75% in the data set with KARPAS-422 [12]. Further, the fold induction at 72 h, 10 µM in the data set with CYP3A4 came out at 2.2. Further, the fraction unbound in data set [11] was 0.13; in data set [16], 0.03. In addition, the “T>fEC50” value in [13] amounted to 4 h. For the same compound, in [3], the TIME is 57.5 h. Moreover, in the data set on KARPAS-422 [14], the outcome was Active. This compound had a clearance in data set [15] of 55.8 mL/min/kg. Also, the EC50 in data set [4] is 1.8 nM. 0.057 nM corresponded to half-maximal inhibition in data set [5] (IC50).

`CSc1cc(C)[nH]c(=O)c1CNC(=O)c1c(C)n([C@H](C)[C@H]2CC[C@H](N3CC(OC4CC4)C3)CC2)c2ncc(Cl)cc12`: in the data set with KARPAS-422 [2], the GI50 came to 37 nM. For the same compound, the fold induction at 72 h, 10 µM in the data set with CYP3A4 was determined as 1.6. Moreover, the TIME in data set [3] turned out to be 64.2 h. Further, the EC50 in data set [4] turned out to be 3.5 nM. For the same compound, the IC50 in data set [5] amounted to 0.092 nM.

For the compound `COC1CN([C@H]2CC[C@H]([C@@H](C)n3c(C)c(C(=O)NCc4c(SC)cc(C)[nH]c4=O)c4ccccc43)CC2)C1`, the GI50 in the data set with KARPAS-422 [2] turned out to be 33 nM. The Activity result in data set [17] was “Non-Toxic”. Moreover, in the data set on KARPAS-422 [18], the result was Active. Further, the fold induction at 72 h, 10 µM in the data set with CYP3A4 was 2. For the same compound, in [3], the TIME stood at 141 h. The inhibition in vivo at 50 mg/kg in the data set with CWR22R worked out at 55%. Also, the EC50 in [4] was 2 nM. The compound further had an IC50 in [5] of 0.059 nM.

As to `CSc1cc(C)[nH]c(=O)c1CNC(=O)c1c(C)n([C@H](C)C2CCN(CC(F)(F)F)CC2)c2ccccc12`, in the data set on KARPAS-422 [2], the GI50 worked out at 53 nM. Besides, the Activity entry in data set [17] is “Non-Toxic”. Also, the inhibition in vivo at 50 mg/kg in the data set with KARPAS-422 [19] was 77 to 88%. Besides, the result in the data set with KARPAS-422 [20] was Active. In addition, the fold induction at 72 h, 10 µM with CYP3A4 was found to be 25. The values for the fraction unbound in data set [11] and in data set [16] were 0.002 and 0.03, respectively. For the same compound, in data set [21], the bioavailability came out at 40%. In addition, the TIME in data set [3] is 46.3 h. This compound showed a clearance in data set [15] of 9.33 mL/min/kg. Moreover, the EC50 in data set [4] turned out to be 2.5 nM. For the same compound, the IC50 in data set [5] was 0.18 nM.

On to `CSc1cc(C)[nH]c(=O)c1CNC(=O)c1c(C)n([C@H](C)[C@H]2CC[C@H](N3CC(OC(F)(F)F)C3)CC2)c2ccccc12`, for which, in the data set with KARPAS-422 [2], the GI50 was determined as 32 nM. The fold induction at 72 h, 10 µM in the data set with CYP3A4 was 41. For the same compound, in data set [4], the EC50 was 1.8 nM. Also, the IC50 in data set [5] was found to be 0.14 nM.

With `CSc1cc(C)[nH]c(=O)c1CNC(=O)c1c(C)n([C@H](C)[C@H]2CC[C@H](N3CC(OC(F)F)C3)CC2)c2ccccc12`, in the data set on KARPAS-422 [2], the GI50 was determined as 12 nM. Further, the fold induction at 72 h, 10 µM in the data set with CYP3A4 stood at 32. The TIME in [3] was 211 h. Further, the EC50 in data set [4] came to 0.7 nM. The same compound displayed an IC50 in data set [5] of 0.1 nM.
